Reference: PubChem BioAssay AID1919017 (Molecular Pharmacology Branch, DTP, NCI, 2023)
pIC50: −log10 of the molar value. Several values for one entry are separate records, joined by “and”; a condition that tells them apart may be missing. Equal entries are not always repeated.

System: SW1271 complex spheroids with HUVEC/MSC, growth, % test/control
Assay: Anticancer human tumor SW1271 cell line growth inhibition [AhR];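 also: spheroids exposed to agents for 7 days before readout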
Details: for pIC50: curve of first compound; for viability, T/C: stronger effect = lower value
Method in brief: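 Spheroids combined tumor cells with HUVEC endothelial cells and human MSCs as stroma. AhR antagonists were paired with standard or investigational drugs, each dosed in half-log steps down from near clinical Cmax, or from 10 microM where Cmax was unknown.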

[1] = second compound 0.1 µM, first compound 0.0316 µM
[2] = second compound 0.1 µM, first compound 0.1 µM
[3] = second compound 0.1 µM, first compound 0.316 µM
[4] = second compound 0.1 µM, first compound 1 µM
[5] = second compound 0.316 µM, first compound 0.0316 µM
[6] = second compound 0.316 µM, first compound 0.1 µM
[7] = second compound 0.316 µM, first compound 0.316 µM
[8] = second compound 0.316 µM, first compound 1 µM
[9] = second compound 1 µM, first compound 0.0316 µM
[10] = second compound 1 µM, first compound 0.1 µM
[11] = second compound 1 µM, first compound 0.316 µM
[12] = second compound 1 µM, first compound 1 µM
[13] = second compound 3.16 µM, first compound 0.0316 µM
[14] = second compound 3.16 µM, first compound 0.1 µM
[15] = second compound 3.16 µM, first compound 0.316 µM
[16] = second compound 3.16 µM, first compound 1 µM
[17] = second compound 10 µM, first compound 0.0316 µM
[18] = second compound 10 µM, first compound 0.1 µM
[19] = second compound 10 µM, first compound 0.316 µM
[20] = second compound 10 µM, first compound 1 µM
[21] = second compound 0.1 µM, first compound 0.00316 µM
[22] = second compound 0.1 µM, first compound 0.01 µM
[23] = second compound 0.316 µM, first compound 0.00316 µM
[24] = second compound 0.316 µM, first compound 0.01 µM
[25] = second compound 1 µM, first compound 0.00316 µM
[26] = second compound 1 µM, first compound 0.01 µM
[27] = second compound 3.16 µM, first compound 0.00316 µM
[28] = second compound 3.16 µM, first compound 0.01 µM
[29] = second compound 10 µM, first compound 0.00316 µM
[30] = second compound 10 µM, first compound 0.01 µM

## CCc1c2c(nc3ccc(O)cc13)-c1cc3c(c(=O)n1C2)COC(=O)[C@]3(O)CC + Cc1ccccc1N=Nc1ccc(NC(=O)c2ccnn2C)c(C)c1
Second compound 0.1 µM
  pIC50: 6.52
Second compound 0.316 µM
  pIC50: 7.17
Second compound 1 µM
  pIC50: 6.68
Second compound 3.16 µM
  pIC50: < 6.52
Second compound 10 µM
  pIC50: 7.10
Second compound 0.1 µM, first compound 0.000949 µM
  viability, T/C: 72.5%
Second compound 0.1 µM, first compound 0.003 µM
  viability, T/C: 99%
Second compound 0.1 µM, first compound 0.00949 µM
  viability, T/C: 64%
Second compound 0.1 µM, first compound 0.03 µM
  viability, T/C: 56.2%
Second compound 0.1 µM, first compound 0.0949 µM
  viability, T/C: 47.7%
Second compound 0.1 µM, first compound 0.3 µM
  viability, T/C: 54.7%
Second compound 0.316 µM, first compound 0.000949 µM
  viability, T/C: 90.9%
Second compound 0.316 µM, first compound 0.003 µM
  viability, T/C: 85.4%
Second compound 0.316 µM, first compound 0.00949 µM
  viability, T/C: 72.4%
Second compound 0.316 µM, first compound 0.03 µM
  viability, T/C: 54.2%
Second compound 0.316 µM, first compound 0.0949 µM
  viability, T/C: 46.4%
Second compound 0.316 µM, first compound 0.3 µM
  viability, T/C: 48.7%
Second compound 1 µM, first compound 0.000949 µM
  viability, T/C: 81.7%
Second compound 1 µM, first compound 0.003 µM
  viability, T/C: 74.3%
Second compound 1 µM, first compound 0.00949 µM
  viability, T/C: 72.5%
Second compound 1 µM, first compound 0.03 µM
  viability, T/C: 55%
Second compound 1 µM, first compound 0.0949 µM
  viability, T/C: 59.6%
Second compound 1 µM, first compound 0.3 µM
  viability, T/C: 46.5%
Second compound 3.16 µM, first compound 0.000949 µM
  viability, T/C: 79.7%
Second compound 3.16 µM, first compound 0.003 µM
  viability, T/C: 85.6%
Second compound 3.16 µM, first compound 0.00949 µM
  viability, T/C: 77.1%
Second compound 3.16 µM, first compound 0.03 µM
  viability, T/C: 63.6%
Second compound 3.16 µM, first compound 0.0949 µM
  viability, T/C: 54.3%
Second compound 3.16 µM, first compound 0.3 µM
  viability, T/C: 52.7%
Second compound 10 µM, first compound 0.000949 µM
  viability, T/C: 82%
Second compound 10 µM, first compound 0.003 µM
  viability, T/C: 82.7%
Second compound 10 µM, first compound 0.00949 µM
  viability, T/C: 83.9%
Second compound 10 µM, first compound 0.03 µM
  viability, T/C: 59.6%
Second compound 10 µM, first compound 0.0949 µM
  viability, T/C: 47.5%
Second compound 10 µM, first compound 0.3 µM
  viability, T/C: 48.9%

## CC1(C)CCC(CN2CCN(c3ccc(C(=O)NS(=O)(=O)c4ccc(NCC5CCOCC5)c([N+](=O)[O-])c4)c(Oc4cnc5[nH]ccc5c4)c3)CC2)=C(c2ccc(Cl)cc2)C1 + Cc1cncc(-c2nc(NCCc3c[nH]c4ccccc34)c3ncn(C(C)C)c3n2)c1
Second compound 0.1 µM
  pIC50: < 5.00
Second compound 0.316 µM
  pIC50: < 5.00
Second compound 1 µM
  pIC50: < 5.00
Second compound 3.16 µM
  pIC50: < 5.00
Second compound 10 µM
  pIC50: > 7.50
[1]
  viability, T/C: 101%
[2]
  viability, T/C: 92.7%
[3]
  viability, T/C: 101%
[4]
  viability, T/C: 116%
Second compound 0.1 µM, first compound 3.16 µM
  viability, T/C: 131%
Second compound 0.1 µM, first compound 10 µM
  viability, T/C: 95.7%
[5]
  viability, T/C: 95%
[6]
  viability, T/C: 93.3%
[7]
  viability, T/C: 102%
[8]
  viability, T/C: 88.4%
Second compound 0.316 µM, first compound 3.16 µM
  viability, T/C: 101%
Second compound 0.316 µM, first compound 10 µM
  viability, T/C: 125%
[9]
  viability, T/C: 95.5%
[10]
  viability, T/C: 79.8%
[11]
  viability, T/C: 104%
[12]
  viability, T/C: 90.5%
Second compound 1 µM, first compound 3.16 µM
  viability, T/C: 111%
Second compound 1 µM, first compound 10 µM
  viability, T/C: 102%
[13]
  viability, T/C: 120%
[14]
  viability, T/C: 98.5%
[15]
  viability, T/C: 102%
[16]
  viability, T/C: 94.7%
Second compound 3.16 µM, first compound 3.16 µM
  viability, T/C: 115%
Second compound 3.16 µM, first compound 10 µM
  viability, T/C: 110%
[17]
  viability, T/C: 36.9%
[18]
  viability, T/C: 46%
[19]
  viability, T/C: 49.5%
[20]
  viability, T/C: 33.6%
Second compound 10 µM, first compound 3.16 µM
  viability, T/C: 48.9%
Second compound 10 µM, first compound 10 µM
  viability, T/C: 44.9%

## CC1COCCN1c1cc(-c2ccnn2C)c2ccnc(-c3ccn[nH]3)c2n1 (stereo unspecified) + Cc1cncc(-c2nc(NCCc3c[nH]c4ccccc34)c3ncn(C(C)C)c3n2)c1
Second compound 0.1 µM
  pIC50: 6.38
Second compound 0.316 µM
  pIC50: 6.60
Second compound 1 µM
  pIC50: 6.19
Second compound 3.16 µM
  pIC50: 6.13
Second compound 10 µM
  pIC50: > 8.50
[21]
  viability, T/C: 79.6%
[22]
  viability, T/C: 86.7%
[1]
  viability, T/C: 70.2%
[2]
  viability, T/C: 57.4%
[3]
  viability, T/C: 58%
[4]
  viability, T/C: 39.4%
[23]
  viability, T/C: 68%
[24]
  viability, T/C: 90.1%
[5]
  viability, T/C: 70.4%
[6]
  viability, T/C: 62.2%
[7]
  viability, T/C: 48%
[8]
  viability, T/C: 35.1%
[25]
  viability, T/C: 89.8%
[26]
  viability, T/C: 88%
[9]
  viability, T/C: 75.3%
[10]
  viability, T/C: 63%
[11]
  viability, T/C: 62%
[12]
  viability, T/C: 44.2%
[27]
  viability, T/C: 72.2%
[28]
  viability, T/C: 85.2%
[13]
  viability, T/C: 72.4%
[14]
  viability, T/C: 70.2%
[15]
  viability, T/C: 61.3%
[16]
  viability, T/C: 46%
[29]
  viability, T/C: 30.2%
[30]
  viability, T/C: 35%
[17]
  viability, T/C: 36.9%
[18]
  viability, T/C: 36.2%
[19]
  viability, T/C: 35%
[20]
  viability, T/C: 24.6%

## CC[C@@]1(O)C(=O)OCc2c1cc1n(c2=O)Cc2cc3c(CN(C)C)c(O)ccc3nc2-1 + Cc1cncc(-c2nc(NCCc3c[nH]c4ccccc34)c3ncn(C(C)C)c3n2)c1
Second compound 0.1 µM
  pIC50: < 7.00
Second compound 0.316 µM
  pIC50: < 7.00
Second compound 1 µM
  pIC50: < 7.00
Second compound 3.16 µM
  pIC50: < 7.00
Second compound 10 µM
  pIC50: 7.92
Second compound 0.1 µM, first compound 0.000316 µM
  viability, T/C: 85.2%
Second compound 0.1 µM, first compound 0.001 µM
  viability, T/C: 99.7%
[21]
  viability, T/C: 124%
[22]
  viability, T/C: 84.9%
[1]
  viability, T/C: 105%
[2]
  viability, T/C: 91%
Second compound 0.316 µM, first compound 0.000316 µM
  viability, T/C: 93.5%
Second compound 0.316 µM, first compound 0.001 µM
  viability, T/C: 114%
[23]
  viability, T/C: 108%
[24]
  viability, T/C: 94.3%
[5]
  viability, T/C: 102%
[6]
  viability, T/C: 67%
Second compound 1 µM, first compound 0.000316 µM
  viability, T/C: 100%
Second compound 1 µM, first compound 0.001 µM
  viability, T/C: 118%
[25]
  viability, T/C: 108%
[26]
  viability, T/C: 88.9%
[9]
  viability, T/C: 77.4%
[10]
  viability, T/C: 80.2%
Second compound 3.16 µM, first compound 0.000316 µM
  viability, T/C: 95.2%
Second compound 3.16 µM, first compound 0.001 µM
  viability, T/C: 109%
[27]
  viability, T/C: 106%
[28]
  viability, T/C: 86.5%
[13]
  viability, T/C: 96%
[14]
  viability, T/C: 78%
Second compound 10 µM, first compound 0.000316 µM
  viability, T/C: 66.1%
Second compound 10 µM, first compound 0.001 µM
  viability, T/C: 62.2%
[29]
  viability, T/C: 52%
[30]
  viability, T/C: 54.5%
[17]
  viability, T/C: 45%
[18]
  viability, T/C: 37.1%

## COc1cc(C2c3cc4c(cc3C(OC3OC5COC(C)OC5C(O)C3O)C3COC(=O)C23)OCO4)cc(OC)c1O (stereo unspecified)
Compound 0.0316 µM
  viability, T/C: 81.3% and 81.6% and 96.4%
Compound 0.1 µM
  viability, T/C: 82.5% and 92.6% and 64.2%
Compound 0.316 µM
  viability, T/C: 63.9% and 54.3% and 41.1%
Compound 1 µM
  viability, T/C: 61.9% and 51% and 46.1%
Compound 3.16 µM
  viability, T/C: 60.1% and 72.8% and 44.8%
Compound 10 µM
  viability, T/C: 50.8% and 45.9% and 39.2%
